Each structure is given as a SMILES string. Where two headings read alike, the source gives them in different places.

Data set [1] has as its system caterpillars of the armyworm (Spodoptera frugiperda). In words: Spodoptera frugiperda test (SPODFR spray treatment). Type of data set: in vivo. The following applies: Spodoptera frugiperda, 168 h, read-out: activity in % (caterpillars killed).
Data set [2] in a line: log P by HPLC on reversed-phase columns (EEC Directive 79/831 Annex V.A8). Format: physicochemical.
Setting [3] is: reversed-phase C18 HPLC column, pH 2.7, HPLC reversed-phase C18, acidic range pH 2.7 (HCOOH), only or first value of the cell, read-out: log P.

Take `Cc1cc(Cl)cc(C(=O)NC2COC2)c1NC(=O)c1cc(Cn2nnc(C(F)F)n2)nn1-c1ncccc1Cl` [Example 16]: the pest or weed control at 100 g/ha in data set [1] is 100%. In data set [2] (pH 2.7, log P), the chromatographic logP is 2.37.
Take `Cc1cc(C#N)cc(C(=O)NC2CS(=O)(=O)CC2O)c1NC(=O)c1cc(Cn2nnc(C(F)(F)F)n2)nn1-c1ccccc1Cl` (stereo not shown) [Example 53]: the chromatographic logP in data set [2] (setting [3]) was found to be 2.64.
As for `Cc1cc(C#N)cc(C(=O)NC2CCN(C)CC2)c1NC(=O)c1cc(Cn2nnc(C(F)(F)F)n2)nn1-c1ccccc1Cl` [Example 59], the chromatographic logP in data set [2] (setting [3]) stood at 1.79.
With `Cc1cc(Cl)cc(C(=O)NCc2ccccc2)c1NC(=O)c1cc(Cn2nnc(CCC(F)(F)F)n2)nn1-c1ncccc1Cl` [Example 79], in data set [2] (pH 2.7, log P), the chromatographic logP amounted to 3.56.
Still for that read-out and setting: with `Cc1cc(I)cc(C(=O)NCc2ccccc2)c1NC(=O)c1cc(Cn2nnc(CCC(F)(F)F)n2)nn1-c1ncccc1Cl` [Example 80] the figure was 3.78.
Still for that read-out and setting: then `Cc1cc(Cl)cc(C(=O)NCc2ccccc2)c1NC(=O)c1cc(Cn2nnnc2CCC(F)(F)F)nn1-c1ncccc1Cl` [Example 131], with 3.2.
For `Cc1cc(C#N)cc(C(=O)NCc2ccccc2)c1NC(=O)c1cc(Cn2nnnc2CCC(F)(F)F)nn1-c1ncccc1Cl` [Example 132], the chromatographic logP in data set [2] (setting [3]) was 2.84.
`Cc1cc(I)cc(C(=O)NCc2ccccc2)c1NC(=O)c1cc(Cn2nnnc2CCC(F)(F)F)nn1-c1ncccc1Cl` [Example 133] registered a chromatographic logP in data set [2] (pH 2.7, log P) of 3.45.
Regarding `Cc1cc(I)cc(C(=O)NCc2ccccc2)c1NC(=O)c1cc(Cn2nc(C(F)(F)F)c(C(F)(F)F)n2)nn1-c1ncccc1Cl` [Example 135], the chromatographic logP in data set [2] (setting [3]) came out at 4.75.
The same measure, in the same setting: then `Cc1cc(Cl)cc(C(=O)NC(C)c2cc(Cl)cc(Cl)c2)c1NC(=O)c1cc(Cn2nnc(C(F)(F)F)n2)nn1-c1ncccc1Cl` (stereo not shown) [Example 145], with 4.66.
Still for that read-out and setting: then `Cc1cc(Cl)cc(C(=O)NCc2cccc(OC(F)F)c2)c1NC(=O)c1cc(Cn2nnc(C(F)F)n2)nn1-c1ncccc1Cl` [Example 176], with 3.42.
The same measure, in the same setting: then `Cc1cc(C#N)cc(C(=O)NCc2ccccc2OC(F)F)c1NC(=O)c1cc(Cn2nnc(C(F)F)n2)nn1-c1ncccc1Cl` [Example 177], with 3.07.
For the compound `Cc1cc(C#N)cc(C(=O)NCc2ccccc2OC(F)F)c1NC(=O)c1cc(Cn2nnc(C(F)(F)F)n2)nn1-c1ncccc1Cl` [Example 179], in data set [2] (setting [3]), the chromatographic logP was 3.55.
`Cc1ccc(Cl)c(C(=O)NCc2ccc(Cl)cc2)c1NC(=O)c1cc(Cn2nnc(C(F)(F)F)n2)nn1-c1ncccc1Cl` [Example 198]: the chromatographic logP in data set [2] (pH 2.7, log P) stood at 3.68.
With `Cc1ccc(Cl)c(C(=O)NCc2ccccc2OC(F)(F)F)c1NC(=O)c1cc(Cn2nnc(C(F)(F)F)n2)nn1-c1ncccc1Cl` [Example 199], the chromatographic logP in data set [2] (setting [3]) worked out at 3.92.
Still for that read-out and setting: with `Cc1ccc(Cl)c(C(=O)NCc2cccc(OC(F)(F)F)c2)c1NC(=O)c1cc(Cn2nnc(C(F)(F)F)n2)nn1-c1ncccc1Cl` [Example 200] the figure was 3.94; with `Cc1ccc(Cl)c(C(=O)NCc2ccc(OC(F)(F)F)cc2)c1NC(=O)c1cc(Cn2nnc(C(F)(F)F)n2)nn1-c1ncccc1Cl` [Example 201], 3.93; with `O=C(NCc1ccccc1Cl)c1cc2ccccc2c(Cl)c1NC(=O)c1cc(Cn2nnc(C(F)(F)F)n2)nn1-c1ncccc1Cl` [Example 218], 4.1.
In the case of `O=C(NCc1cccc(Cl)c1)c1cc2ccccc2c(Cl)c1NC(=O)c1cc(Cn2nnc(C(F)(F)F)n2)nn1-c1ncccc1Cl` [Example 219], in data set [2] (setting [3]), the chromatographic logP is 4.13.
Still for that read-out and setting: with `O=C(NCc1ccc(Cl)cc1)c1cc2ccccc2c(Cl)c1NC(=O)c1cc(Cn2nnc(C(F)(F)F)n2)nn1-c1ncccc1Cl` [Example 220] the figure was 4.11; with `Cc1cc(Cl)cc(C(=O)NCc2cc3ccccc3nc2Cl)c1NC(=O)c1cc(Cn2nnc(C(F)(F)F)n2)nn1-c1ncccc1Cl` [Example 237], 3.94.

For the origin of these results see patent publication US8791143B2, “Anthranilic diamide derivatives having cyclic side-chains” (priority 2010, dated 2014).
